Legend:
Assay in all cases: relative viability (nuclei count vs DMSO), 5 days (fraction); higher = more cells survive
[1] = system: A-427
Outline: (§1)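 Cells from lung cancer lines were seeded into 1536-well plates and, one day later, dosed by pin tool. Treatments were either a single drug or a fixed dose of an anchor drug with five library-drug doses (not always all listed) in √10 steps. After 5 days, nuclei were stained in a one-step fixation (final 0.05% Triton X-100, 1% formaldehyde, 1 ug/ml Hoechst) and counted on 4× images, and relative viability is the treated-to-vehicle nuclei ratio, as the median of duplicate plates.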

[2] = system: COR-L 105
Outline: as §1

[3] = system: EPLC-272H
Outline: as §1

[4] = system: HCC-366
Outline: as §1

[5] = system: HCC-78
Outline: as §1

[6] = system: HOP-62
Outline: as §1

[7] = system: LC-2-ad
Outline: as §1

[8] = system: LU99A
Outline: as §1

[9] = system: LXF-289
Outline: as §1

[10] = system: NCI-H1666
Outline: as §1

[11] = system: NCI-H1792
Outline: as §1

[12] = system: NCI-H1793
Outline: as §1

[13] = system: NCI-H1915
Outline: as §1

[14] = system: NCI-H1944
Outline: as §1

[15] = system: NCI-H2009
Outline: as §1

[16] = system: NCI-H2085
Outline: as §1

[17] = system: NCI-H358
Outline: as §1

[18] = system: NCI-H460
Outline: as §1

[19] = system: SK-LU-1
Outline: as §1

[20] = system: UMC-11
Outline: as §1

SMILES: O=c1cc(-c2cccc3c2Sc2ccccc2S3)oc(N2CCOCC2)c1 + C[C@]1(O)C[C@@H](c2nc(-c3ccc4ccc(-c5ccccc5)nc4c3)c3c(N)nccn32)C1 [Linsitinib] (partner 1 µM)
- relative viability ([1]; first compound 0.08 µM): 1.09
- relative viability ([1]; first compound 0.253 µM): 0.959
- relative viability ([1]; first compound 0.8 µM): 1.19
- relative viability ([1]; first compound 2.53 µM): 1.07
- relative viability ([1]; first compound 8 µM): 1.08
- relative viability ([2]; first compound 0.08 µM): 0.771
- relative viability ([2]; first compound 0.253 µM): 1.11
- relative viability ([2]; first compound 0.8 µM): 0.823
- relative viability ([2]; first compound 2.53 µM): 0.958
- relative viability ([2]; first compound 8 µM): 1.07
- relative viability ([3]; first compound 0.08 µM): 1.12
- relative viability ([3]; first compound 0.253 µM): 1.31
- relative viability ([3]; first compound 0.8 µM): 1.3
- relative viability ([3]; first compound 2.53 µM): 1.19
- relative viability ([3]; first compound 8 µM): 1.13
- relative viability ([4]; first compound 0.08 µM): 0.605
- relative viability ([4]; first compound 0.253 µM): 1.07
- relative viability ([4]; first compound 0.8 µM): 0.711
- relative viability ([4]; first compound 2.53 µM): 0.744
- relative viability ([4]; first compound 8 µM): 0.573
- relative viability ([5]; first compound 0.08 µM): 0.561
- relative viability ([5]; first compound 0.253 µM): 0.746
- relative viability ([5]; first compound 0.8 µM): 0.41
- relative viability ([5]; first compound 2.53 µM): 0.457
- relative viability ([5]; first compound 8 µM): 0.575
- relative viability ([6]; first compound 0.08 µM): 1.04
- relative viability ([6]; first compound 0.253 µM): 1.01
- relative viability ([6]; first compound 0.8 µM): 1.01
- relative viability ([6]; first compound 2.53 µM): 0.789
- relative viability ([6]; first compound 8 µM): 0.917
- relative viability ([7]; first compound 0.08 µM): 0.79
- relative viability ([7]; first compound 0.253 µM): 0.967
- relative viability ([7]; first compound 0.8 µM): 0.828
- relative viability ([7]; first compound 2.53 µM): 0.749
- relative viability ([7]; first compound 8 µM): 0.802
- relative viability ([8]; first compound 0.08 µM): 0.58
- relative viability ([8]; first compound 0.253 µM): 0.582
- relative viability ([8]; first compound 0.8 µM): 0.631
- relative viability ([8]; first compound 2.53 µM): 0.544
- relative viability ([8]; first compound 8 µM): 0.608
- relative viability ([9]; first compound 0.08 µM): 0.993
- relative viability ([9]; first compound 0.253 µM): 0.976
- relative viability ([9]; first compound 0.8 µM): 0.99
- relative viability ([9]; first compound 2.53 µM): 0.96
- relative viability ([9]; first compound 8 µM): 1.07
- relative viability ([10]; first compound 0.08 µM): 0.827
- relative viability ([10]; first compound 0.253 µM): 0.946
- relative viability ([10]; first compound 0.8 µM): 0.545
- relative viability ([10]; first compound 2.53 µM): 0.738
- relative viability ([10]; first compound 8 µM): 0.805
- relative viability ([11]; first compound 0.253 µM): 0.61
- relative viability ([11]; first compound 0.8 µM): 0.502
- relative viability ([11]; first compound 2.53 µM): 0.535
- relative viability ([11]; first compound 8 µM): 0.516
- relative viability ([12]; first compound 0.08 µM): 0.674
- relative viability ([12]; first compound 0.253 µM): 1.19
- relative viability ([12]; first compound 0.8 µM): 0.992
- relative viability ([12]; first compound 2.53 µM): 0.821
- relative viability ([12]; first compound 8 µM): 0.919
- relative viability ([13]; first compound 0.08 µM): 1.06
- relative viability ([13]; first compound 0.253 µM): 1.1
- relative viability ([13]; first compound 0.8 µM): 1.07
- relative viability ([13]; first compound 2.53 µM): 1.05
- relative viability ([13]; first compound 8 µM): 1.12
- relative viability ([14]; first compound 0.08 µM): 1.04
- relative viability ([14]; first compound 0.253 µM): 1.26
- relative viability ([14]; first compound 0.8 µM): 1.23
- relative viability ([14]; first compound 8 µM): 1.18
- relative viability ([15]; first compound 0.08 µM): 1.17
- relative viability ([15]; first compound 0.253 µM): 1.22
- relative viability ([15]; first compound 0.8 µM): 1.19
- relative viability ([15]; first compound 2.53 µM): 1.12
- relative viability ([15]; first compound 8 µM): 1.11
- relative viability ([16]; first compound 0.08 µM): 0.812
- relative viability ([16]; first compound 0.253 µM): 0.911
- relative viability ([16]; first compound 0.8 µM): 0.925
- relative viability ([16]; first compound 2.53 µM): 0.846
- relative viability ([16]; first compound 8 µM): 0.595
- relative viability ([17]; first compound 0.08 µM): 0.618
- relative viability ([17]; first compound 0.253 µM): 0.665
- relative viability ([17]; first compound 0.8 µM): 0.79
- relative viability ([17]; first compound 2.53 µM): 0.707
- relative viability ([17]; first compound 8 µM): 0.784
- relative viability ([18]; first compound 0.08 µM): 0.991
- relative viability ([18]; first compound 0.253 µM): 0.997
- relative viability ([18]; first compound 0.8 µM): 1.08
- relative viability ([18]; first compound 2.53 µM): 0.796
- relative viability ([18]; first compound 8 µM): 0.791
- relative viability ([19]; first compound 0.08 µM): 1.14
- relative viability ([19]; first compound 0.253 µM): 1.22
- relative viability ([19]; first compound 0.8 µM): 1.27
- relative viability ([19]; first compound 2.53 µM): 0.952
- relative viability ([19]; first compound 8 µM): 0.918
- relative viability ([20]; first compound 0.08 µM): 1.16
- relative viability ([20]; first compound 0.253 µM): 1.17
- relative viability ([20]; first compound 0.8 µM): 1.18
- relative viability ([20]; first compound 2.53 µM): 1.06
- relative viability ([20]; first compound 8 µM): 1.23
